Experimental data: a melting point compilation (Tetko et al.; mined from patent text by program, amines drawn as free bases though some values may be those of a salt)

Point of comparison: `CCOC(=O)C1=C(C)Nc2ccn(C)c(=O)c2C1c1ccccc1OC` (stereo not given), melting point 225 °C. Against it:
- CS(=O)(=O)NC(=O)/C(C#N)=C/c1cn(-c2cc(C(F)(F)F)cc(C(F)(F)F)c2)nc1-c1cccc(Cl)c1 — higher, 273 to 275 °C
- COc1cc(C(=O)OC(C)(C)C)ccc1Cn1cc(CC(C)C(=O)O)c2ccc(C(=O)NCC3CCCC3)cc21 (stereo not given) — lower, 195 to 197 °C
- CCCCc1ccc2c(n1)C(C(N)=S)CCC2 (stereo not given) — lower, 54 to 56 °C
- CC(C)C(=O)NC(N)=S — lower, 114 to 116 °C
- Cn1c(=O)c2c(ncn2CCCN2CCC(NC(=O)c3ccc(F)cc3)CC2)n(C)c1=O — lower, 192 to 193 °C
- CC1(C)OC(=S)Nc2ccc(-c3cc(F)cc(Br)c3)cc21 — lower, 221 to 222 °C
- O=C(NC(CC12CC3CC(CC(C3)C1)C2)Nc1c(Nc2cccnc2)c(=O)c1=O)c1ccccc1Cl (stereo not given) — not separable, 224 to 225 °C
- CC(=O)Nc1cc(C)c2c(n1)N(C1CC1)c1ncccc1C(=O)N2C(C)=O — lower, 211 to 213 °C
- C#CCOC(=O)c1ccc(SC(C)CCCC(C)C)cc1 (stereo not given) — lower, 130 to 131 °C
- Cn1c(C(F)(F)F)cc(=O)n(-c2c(F)cc(Cl)c3nc(N)oc23)c1=O — lower, 144 to 150 °C
- N=C(N)c1ccc(C(=O)N2CCCC2CC(=O)NCCC(=O)O)cc1 (stereo not given) — higher, > 250 °C
- CCCCCCCCCCCCCCCCCCC1CNc2ccc(C(=O)O)cc21 (racemic) — lower, 84 to 87 °C
- CC(c1cccc(C(F)(F)F)c1N)S(C)(=O)=O (stereo not given) — lower, 153 to 155 °C
- S=c1[nH]c2cc(Cl)cc(OCCNCc3ccccc3)c2[nH]1 — higher, > 250 °C
- CN(C)c1nc2sc3c(NCc4cccnc4)ncnc3c2c2c1CCC2(C)C — higher, 237 to 238 °C
- CCOC(=O)C1=C(C)NC(C)=C(C(=O)OC)C1c1cccc(C(F)(F)F)c1 (single isomer, unassigned; (-)) — lower, 134 to 135 °C
- CSc1c(SC)c(OC(C)=O)c2cc(Cl)ccc2c1OC(C)=O — lower, 113 to 114 °C
- C[C@@H]1CN(CCCn2c3ccc(O)cc3c3c4c(c(-c5c(Cl)cccc5Cl)cc32)C(=O)NC4=O)C[C@H](C)N1 — lower, 160 to 165 °C
- CCOc1ccc(CCc2ccc(OC(F)F)cc2)cc1 — lower, 37 °C
- CON1CCC(CC2NC(=O)C(c3cc(C)ccc3C)=C2O)CC1 (stereo not given) — lower, 116 to 119 °C
- CCNc1nc(=S)n(Cc2ccc(OC)c(OC3CCCC3)c2)c2nc[nH]c12 — lower, 72 to 77 °C
- CCCc1nn(-c2ccc(C(F)(F)F)cn2)cc1CCCOc1ccccc1CCC(=O)O — lower, 87 to 88 °C
- CC1(C)NC(=O)N(CCC(COc2ccc(-c3ccc(C#N)cc3)cc2)N(O)C=O)C1=O (stereo not given) — lower, 202 to 204 °C
- CCOC(=O)c1ncn2c1CN=C(c1cccs1)c1cc(C#C[Si](C)(C)C)ccc1-2 — lower, 124 to 127 °C
- CC(C)n1nc2c(F)cccc2c1-c1ccc(O)cc1O — not separable, > 160 °C
- CCn1cc(C(=O)O)c(=O)cc1-c1ccc(OC)cc1 — lower, 215 to 217 °C
- O=C1c2ccccc2-c2[nH]c(=O)c(=O)[nH]c21 — higher, 243 to 253 °C
- COc1ccc(C(=O)N(C)CC(O)COc2cccc3[nH]c4ccccc4c23)cc1OC (stereo not given) — lower, 77 to 80 °C
- NC(=S)Nc1ccc(Br)cc1 — lower, 188 to 189 °C
- COc1ccccc1-c1cncc(OC2SCC(O)C(O)C2O)c1 (stereo not given) — lower, 209 to 211 °C
- CCOc1cc2c(cc1S(=O)(=O)NC(=O)NC)C(CNC(=O)N1CC(C)=C(CC)C1=O)CCO2 (stereo not given) — lower, 187 to 188 °C
- COc1ccc(Cn2cc3nc(Nc4ccc(C(F)(F)F)cc4Cl)nc(OCc4ccccc4)c3n2)cc1 — lower, 189 to 192 °C
- O=C(O)C1CCc2c(c3ccccc3n2C(=O)c2ccc(Cl)cc2)C1 (stereo not given) — lower, 210 to 211 °C
- COCOc1ccc(-c2ncc3ncc(N4CCCCC4=O)cc3n2)cc1 — lower, 202 to 204 °C
- Clc1ccc2c(c1)C(c1ccccc1)=NCc1c[nH]cc1-2 — lower, 203 to 206 °C
- COCCn1ccc2cc(NC(=O)/C=C/c3ccc(C(C)(C)C)cc3)ccc21 — lower, 138 °C
- S=C1NCC(C2=CCC=CC2)N1 (stereo not given) — lower, 165 to 167 °C
- C#CCn1c(-c2ccccc2)nc(O)c(CC)c1=O — lower, 159 to 160 °C
- CCOC(=O)[C@H](O)[C@@H](NC(=O)OC(C)(C)C)c1ccccc1 — lower, 102 °C
- Cc1[nH]c(C=O)c(C)c1CCCO — lower, 85 °C
- CN1N=C(c2ccccc2)C(C)(C)NC1=O — lower, 128 to 130 °C
- CN(C)CCCCCC(=O)O — lower, 89 to 91 °C
- CC1CC(O)=CC(=O)O1 (stereo not given) — lower, 103 to 104 °C
- CCOc1ccc(-c2ccc(Cl)nn2)c(OCC2CO2)c1 (stereo not given) — lower, 93 to 94 °C
- Cc1cccc(NC(=O)N[C@H]2C[C@@](N)(C(=O)O)[C@@H]3[C@@H](C(=O)O)[C@@H]32)c1 (relative stereo) — higher, > 250 °C
- COc1cccc(C(=O)O)c1NC(=O)C(C)(C)C — lower, 117 to 120 °C
- COc1cc(Nc2c(C#N)cnc3cc(-c4ccc(C(N)=O)cc4)sc23)c(Cl)cc1Cl — higher, > 300 °C
- COc1ccc(-c2cccc(NC(N)=O)c2)cc1OC1CCCC1 — lower, 174 to 175 °C
- Cc1nc(-n2cc(C(F)(F)F)ccc2=O)sc1C(=O)NCc1ccccc1 — lower, 148 to 149 °C
- O=C(O)CCCN1CCN(C(=O)c2cc(C(F)(F)F)cc(C(F)(F)F)c2)[C@H](Cc2c[nH]c3ccccc23)C1 — lower, 112 to 120 °C
- O=C(NCc1cccc(F)c1)NNC(=O)c1ccc2c(c1)CCO2 — lower, 200 to 201 °C
- Cc1c(O)c(C)c2c(C)cn(C(=O)C(C)(C)C)c2c1C — lower, 152 to 153 °C
- CCOC(=O)C(OC(C)=O)c1ccc(-c2ccc(-c3ccccc3)cc2)o1 (stereo not given) — lower, 136 to 140 °C
- CCCc1nc2cnc3ccc([N+](=O)[O-])cc3c2s1 — higher, 228 to 230 °C
- C[C@@H]1CNC(=O)c2cc3cc(F)cc(Br)c3n21 — lower, 188 °C
- COc1ccc(C=CC2=NN(C(C)=O)C(C)Cc3cc(OC)c(OC)cc32)c(OC)c1 (stereo not given) — lower, 85 to 87 °C
- COC(=O)C(Oc1cc(OCc2ccnnc2)ccc1C#N)c1ccccc1Cl (racemic) — lower, 136 to 138 °C
- Nc1nc(-c2ccc(CCN3CCN(c4cccc5cc(F)ccc45)CC3)cc2)cs1 — not separable, 220 to 225 °C
- CN1C(=O)C(CC(O)C#N)c2ccccc21 (stereo not given) — lower, 136 to 138 °C
- Cc1ccc(C)c2c(=O)oc(=O)[nH]c12 — higher, 295 to 298 °C
- COC(=O)c1cn(-c2ncnc3c2ccn3C)c2ncccc12 — lower, 207 °C
- O=C(c1ccc([N+](=O)[O-])cc1)N1Cc2ccc(C(=O)C(F)(F)F)n2Cc2ccccc21 — lower, 169 to 170 °C
- Cc1cc(Oc2c(Cl)cc(C(F)(F)F)cc2Cl)nn1C(=O)NCCCl — lower, 116 to 118 °C
- Cc1ccc(S(=O)(=O)C2(CC#Cc3ccc(Cl)cc3)SC(=O)NC2=O)cc1 (stereo not given) — lower, 172 to 174 °C
- COc1ccc(OC)c(Cc2cnc3nc(N)nc(N)c3c2C)c1 — higher, 252 to 254 °C
- COc1ccc(S(=O)(=O)c2cc(O)c(O)cc2C)cc1NC(C)=O — higher, 230 to 232 °C
- COC(=O)C1=C(O)c2ccccc2S(=O)(=O)N1C — lower, 163 to 165 °C
- CN1CCCc2cc(OC(=O)Nc3ccc(Cl)c(C(F)(F)F)c3)ccc21 — lower, 152 °C
- O=C(NCc1ncc(C(F)(F)F)cc1Cl)c1c(Cl)nc2c(c1Cl)CCCC2 — lower, 48 to 50 °C
- O=CC(=O)c1ccccc1 — lower, 120 to 122 °C
- Cc1nc(-n2cnn(CCNc3ccc(F)cc3)c2=O)sc1C(=O)NCc1cccnc1 — lower, 163 to 164 °C
- COc1cc2ccc(CO)c(-c3ccnc(Br)c3)c2cc1OC — lower, 150 to 153 °C
- CN(C)Cc1ccc(CSCCNC2=NS(=O)(=O)N=C2NO)o1 — lower, 203 to 205 °C
- N#CC(N=C(c1ccccc1)c1ccccc1)c1ncc(C(F)(F)F)cc1Cl (stereo not given) — lower, 105 to 108 °C
- COc1c(OC(C)=O)ccc(C=O)c1[N+](=O)[O-] — lower, 84 to 86 °C
- CCOC(=O)C(=NOCC(N)=O)c1csc(NC(c2ccccc2)(c2ccccc2)c2ccccc2)n1 — lower, 180 °C
- CC(=O)NC1CCc2c([nH]c3ccc(F)cc23)C1 (stereo not given) — lower, 209 to 210 °C
- C/C(=C\c1ccc(C=O)cc1)c1ccc2c(c1)C(C)(C)CCC2(C)C — lower, 140 to 141 °C
- CCCCCC(=O)n1c(=O)n(CCCC)c(=O)n1C(=O)CCCCC — lower, 88 to 89 °C
- N#Cc1ccc(C(=O)CC2(O)OCCO2)cc1 — lower, 151 to 152 °C
- Cc1c(-c2ccc(C#N)cc2)c(C#N)c(C2CC2)n1Cc1cnc(Cl)c(CO)c1 — lower, 193 to 194 °C
- NCCN1CCC(NC(=O)c2cc(Cl)c(N)c3c2OCCC3)CC1 — lower, 130 °C
- O=C(O)[C@@H]1CCc2cc(F)ccc2O1 — lower, 99.7 °C
- c1ccc(Oc2ccc(OCc3nc(C4CC4)no3)cc2)cc1 — lower, 99 °C
- Cc1nc2cc(NC(=O)Nc3cccc(C(F)(F)F)c3)ccc2o1 — lower, 184 to 186 °C
- O=c1c2c([nH]n1-c1ccc(Cl)cc1F)CCCCC2 — lower, 197 to 201 °C
- N#Cc1cc(F)c(N2C(=O)c3ccccc3C2=O)cc1O — higher, 247 °C
- CCC1NC(c2cc(Cl)nc(Cl)c2)=NC(=O)C1(CC)C(=O)OC (stereo not given) — lower, 202 to 203 °C
- CCNC(=O)c1nc2n(n1)-c1ccc(Cl)cc1C(c1ccccc1F)=NC2 — higher, 232 to 234 °C
- COc1cccc2c(=O)n(S(=O)(=O)c3ccc(Cl)cc3)c(=O)[nH]c12 — lower, 220 to 222 °C
- Cc1nc(NCC(F)(F)F)c2nc(-c3ccccc3)cc-2[nH]1 — higher, > 310 °C
- NN=CNc1nc(CSCCN=CNS(=O)(=O)c2ccc(Br)cc2)cs1 — lower, 107 to 110 °C
- Fc1cc2cc[nH]c2cc1Cl — lower, 105 to 107 °C
- CC(C)CC(SCc1ccccc1)c1c(O)cc(-c2ccccc2)oc1=O (stereo not given) — lower, 153 to 155 °C
- CCOC(=O)c1cc(Br)cc2c(=O)cc(-c3cccc(OCc4ncc5ccccc5n4)c3)oc12 — higher, 246 °C
- COc1ccc(-c2ccc(OC)cc2[N+](=O)[O-])c([N+](=O)[O-])c1 — lower, 134 to 137 °C
- COC(=O)c1ccc2[nH]c(-c3ccc(OC)c4nc(C)ccc34)nc2c1 — lower, 165 to 167 °C
- N#Cc1cnc2cc(Cl)c([N+](=O)[O-])cc2c1Nc1ccc(Oc2ccccc2)cc1 — lower, 220 to 222 °C
- CC(=O)OC1CSC(Oc2ccc(-c3c(C)n[nH]c3C)nc2)C(OC(C)=O)C1OC(C)=O (stereo not given) — lower, 154 °C
